Laboratory results taken from the supplement of paper PMC11451515.

System: NOMO1
Test: cell viability relative to DMSO control; higher = less cytotoxic
Conditions: 48 h
Outline: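 NOMO1 or SEM cells were plated at 500 cells/well and P12-Ichikawa cells at 1000 cells/well in 1536-well plates (5 μl), after each leukemia line had been adapted for at least four passages in each medium. Pin dosing delivered library compounds in DMSO at 11 threefold concentrations, 47 μM to 0.79 nM. CellTiter-Glo One luminescence was read after 48 h at 37°C. Viability is reported as a per-plate percentage of DMSO wells, with cell-free wells as background.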

[1] = HPLM + 10% dialyzed FBS, 0.000781 µM
[2] = HPLM + 10% dialyzed FBS, 0.00234 µM
[3] = HPLM + 10% dialyzed FBS, 0.00702 µM
[4] = HPLM + 10% dialyzed FBS, 0.0211 µM
[5] = HPLM + 10% dialyzed FBS, 0.0632 µM
[6] = HPLM + 10% dialyzed FBS, 0.19 µM
[7] = HPLM + 10% dialyzed FBS, 0.569 µM
[8] = HPLM + 10% dialyzed FBS, 1.71 µM
[9] = HPLM + 10% dialyzed FBS, 5.12 µM
[10] = HPLM + 10% dialyzed FBS, 15.4 µM
[11] = HPLM + 10% dialyzed FBS, 46.1 µM
[12] = RPMI 5 mM glucose + 10% FBS, 0.000781 µM
[13] = RPMI 5 mM glucose + 10% FBS, 0.00234 µM
[14] = RPMI 5 mM glucose + 10% FBS, 0.00702 µM
[15] = RPMI 5 mM glucose + 10% FBS, 0.0211 µM
[16] = RPMI 5 mM glucose + 10% FBS, 0.0632 µM
[17] = RPMI 5 mM glucose + 10% FBS, 0.19 µM
[18] = RPMI 5 mM glucose + 10% FBS, 0.569 µM
[19] = RPMI 5 mM glucose + 10% FBS, 1.71 µM
[20] = RPMI 5 mM glucose + 10% FBS, 5.12 µM
[21] = RPMI 5 mM glucose + 10% FBS, 15.4 µM
[22] = RPMI 5 mM glucose + 10% FBS, 46.1 µM
[23] = RPMI 5 mM glucose + 10% dialyzed FBS, 0.000781 µM
[24] = RPMI 5 mM glucose + 10% dialyzed FBS, 0.00234 µM
[25] = RPMI 5 mM glucose + 10% dialyzed FBS, 0.00702 µM
[26] = RPMI 5 mM glucose + 10% dialyzed FBS, 0.0211 µM
[27] = RPMI 5 mM glucose + 10% dialyzed FBS, 0.0632 µM
[28] = RPMI 5 mM glucose + 10% dialyzed FBS, 0.19 µM
[29] = RPMI 5 mM glucose + 10% dialyzed FBS, 0.569 µM
[30] = RPMI 5 mM glucose + 10% dialyzed FBS, 1.71 µM
[31] = RPMI 5 mM glucose + 10% dialyzed FBS, 5.12 µM
[32] = RPMI 5 mM glucose + 10% dialyzed FBS, 15.4 µM
[33] = RPMI 5 mM glucose + 10% dialyzed FBS, 46.1 µM

SMILES	cell viability [1]	cell viability [2]	cell viability [3]	cell viability [4]	cell viability [5]	cell viability [6]	cell viability [7]	cell viability [8]	cell viability [9]	cell viability [10]	cell viability [11]	cell viability [12]	cell viability [13]	cell viability [14]	cell viability [15]	cell viability [16]	cell viability [17]	cell viability [18]	cell viability [19]	cell viability [20]	cell viability [21]	cell viability [22]	cell viability [23]	cell viability [24]	cell viability [25]	cell viability [26]	cell viability [27]	cell viability [28]	cell viability [29]	cell viability [30]	cell viability [31]	cell viability [32]	cell viability [33]
CC(=O)SC[C@@H](C)C(=O)N1CCC[C@H]1C(=O)N[C@@H](Cc1ccccc1)C(=O)O	117%	119%	95.1%	105%	115%	114%	97.2%	101%	111%	110%	89.3%	93.5%	106%	105%	88.7%	94.1%	100%	94.4%	94.5%	85.3%	82.5%	92.1%	103%	99.5%	107%	106%	112%	89.5%	106%	97.3%	103%	106%	91.5%
Cc1c(N)nc([C@H](CC(N)=O)NC[C@@H](N)C(N)=O)nc1C(=O)N[C@H](C(=O)N[C@@H](C)[C@H](O)[C@@H](C)C(=O)N[C@@H](C(=O)NCCc1nc(-c2nc(C(=O)NCCC[S+](C)C)cs2)cs1)[C@@H](C)O)C(O[C@H]1O[C@H](CO)[C@H](O)[C@@H](O)[C@H]1O[C@H]1O[C@H](CO)[C@@H](O)[C@H](OC(N)=O)[C@@H]1O)c1c[nH]cn1 (stereo partly specified)	117%	112%	128%	125%	121%	128%	108%	74%	40.4%	57.9%	85.9%	101%	100%	95%	98.6%	110%	115%	114%	71.9%	41.1%	72.2%	79.6%	119%	117%	114%	132%	113%	124%	138%	127%	66%	85%	86.7%
CCc1ccc(OCc2ccccc2C(=O)Nc2ccc3nc(C)cc(N)c3c2)cc1	92.1%	107%	105%	117%	115%	118%	127%	114%	15.3%	6.13%	4.55%	103%	108%	105%	108%	110%	116%	112%	113%	112%	7.05%	4.22%	109%	108%	116%	117%	116%	130%	124%	115%	111%	6.5%	4.65%
C=CC(=O)Nc1cc2c(Nc3ccc(F)c(Cl)c3)ncnc2cc1C#CC(C)(C)N1CCN(C)CC1	112%	109%	112%	89.9%	92%	108%	117%	89.2%	55.3%	6.12%	6.26%	95.3%	93%	91.7%	95.4%	101%	93.5%	101%	95%	94.6%	7.56%	12.7%	99.2%	101%	107%	95.3%	86.6%	103%	101%	106%	52.7%	8.43%	5.07%
Nc1ccc(C(=O)c2cc3c(ccc4ccccc43)[nH]2)cc1	120%	121%	123%	129%	113%	112%	117%	110%	89.5%	40.5%	26.6%	118%	112%	110%	117%	121%	116%	101%	109%	99.2%	56.4%	18.9%											
COc1cc(NCc2ccc3nc(N)nc(N)c3c2C)cc(OC)c1OC	90.2%	91.7%	98.9%	95.1%	93.5%	98.4%	89.5%	44.4%	36%	34.2%	15.9%	79.3%	88%	80.9%	85.7%	84.7%	89.3%	93.5%	83.2%	99.6%	86.9%	9.99%	87.2%	88.5%	86.2%	91.1%	91%	107%	94.5%	81.1%	68.8%	37.9%	16.6%
C[C@@H]1CC[C@@]2(CC[C@]3(C)\C(=C/C[C@@H]4[C@@]5(C)CC[C@H](O)C(C)(C)[C@@H]5CC[C@@]34C)[C@@H]2[C@H]1C)C(O)=O	111%	120%	116%	113%	111%	127%	130%	113%	113%	111%	119%	113%	108%	120%	106%	112%	108%	98.7%	104%	102%	112%	106%	104%	120%	117%	125%	124%	113%	121%	112%	114%	106%	114%
CC(C)c1onc(-c2c(Cl)cccc2Cl)c1COc1ccc(/C=C/c2cccc(C(=O)O)c2)c(Cl)c1																							128%	124%	124%	139%	114%	133%	129%	132%	128%	109%	107%
